Measurements as given in patent publication US8158441B2, “Method for detecting aggregate-forming circulating protein forms using an agent for aggregating said forms and an agent for capturing formed aggregates” (Biomerieux S.A., priority 2005, dated 2012).

Assays:
[1] = biological target: T1, phosphorylated Tau protein (Homo sapiens, UniProt P10636); assay: Precipitation of phosphorylated Tau protein from brain extracts spiked into plasma by agent I, PhosphoTau ELISA of pellet and supernatant; conditions: TET 100 mg/ml, 60 minutes at 37° C.
T1 construct: The assays are carried out with 25 ng of brain extracts; from tissue; host or cells: brain extracts from Alzheimer (AD+) and non-Alzheimer (AD-) patients, diluted in a pool of normal plasmas
Method: The PhosphoTau Elisa assay is based on the use of Dynex microplates to which are bound 3 μg/ml of goat anti-mouse Fc antibodies (Pierce) in a 25 mM KHPO4 buffer (pH 7.2) containing 140 mM NaCl, 1 mM EDTA and 2 mM NaN3, for three hours at 24° C. The wells are then passivated with a TBS (25 mM Tris-HCl, pH 7.5, 140 mM NaCl)-casein (1%) buffer for 1 h at 24° C., and then incubated for 2 h at 24° C. with 3 μg/ml of Tau1 (Chemicon) and CP27 (AppliedNeuroSolutions) antibodies diluted in TBS casein buffer.
Standards and brain extracts are diluted in a pool of normal plasmas for these assays and deposited at a rate of 80 μL per well in duplicate. […] 20 μl of this mixture are added to each well and incubated for 66 hours at 24° C. […] The biotinylated antibody is detected with 0.4 μg/ml of a streptavidin-peroxydase conjugate (Pierce) diluted in TBS-casein buffer and incubated for 45 minutes at 24° C. A Lumiglo reagent (Kirkegaard and Perry laboratories, US) is added to each well and the chemiluminescence is read in a luminometer (Berthold, Centro LB 960). […]
The samples are then centrifuged for 10 minutes at 13 000 rpm. […] The samples are then ready to be deposited on plates.
The samples are then centrifuged for 10 minutes at 13 000 rpm. […] The samples are then ready to be deposited onto plates.

[2] = biological target: T2, recombinant alpha-synuclein (SYN) protein (Homo sapiens, UniProt P37840); assay: Precipitation of recombinant alpha-synuclein spiked into human plasma by agent I, protein gel and Western blotting; conditions: 50 to 500 mg/ml agent I, 60 minutes at 37° C., Western blotting
T2 construct: purchased rPeptide
Method: After migration, two options are used: • The protein gel is stained with Coomassie Blue by adding gelcode blue stain reagent (Pierce) overnight at ambient temperature with shaking. […] 9.2 Detection in the Presence of the Agent I
The pellets are recovered and are separated from the supernatants. All the fractions are conserved. The pellets are taken up with 250 μl of SDS buffer. After denaturation, all the fractions are analyzed by the Western blotting technique.

[3] = biological target: T3, beta-amyloid peptide 1-42 (Homo sapiens, UniProt P05067); assay: Circular dichroism of Aβ42 peptide with para-sulfonato-calix[4]arene; assay type: binding; conditions: in the presence of para-sulfonato-calix[4]arene, peptide/calixarene 1/1 to 1/5
T3 construct: synthetic beta-amyloid peptide 42 amino acids in length (beta-A peptide 1-42)
Method: The analysis is carried out by circular dichroism.
(§1) The beta-amyloid peptide to be analyzed as defined above, also called Aβ42, is extemporaneously dissolved at a stock concentration of 2.2×10^−4M in a solution of trifluoroethanol (TFE) at 20% in water in order to structure the β-amyloid peptides. The para-sulfonato-calix[n]arenes, prepared as described in Da Silva, E. et al., 2003, Tetrahedron, 59(37): 7357-7364, are dissolved at 100 μM in 50 mM phosphate buffer. The samples are prepared so as to be able to obtain a final concentration of 10 μM of beta-amyloid peptide in a phosphate buffer, i.e. for a final volume of 500 μL. The peptide concentration/calixarene concentration ratios can vary from 1/0 to 1/5.
A β-amyloid control without para-sulfonato-calix[n]arene is carried out: 22.5 μL of Aβ42 stock solution at 2.2×10^−4M (5 nmol) in 20% TFE, 477.5 μL of 50 mM phosphate buffer.
The samples are analyzed by circular dichroism between 180 and 260 nm.
The control is a sample of Aβ42 peptide without calixarene (1/0). The solutions are prepared for a final volume of 500 μL. The Aβ42 peptide has a molar mass of 4514 g/mol, the para-sulfonato-calix[4]arene has a molar mass of 744 g/mol.

[4] = biological target: T3, beta-amyloid peptide 1-42; assay: Circular dichroism of Aβ42 peptide with chondroitin-6-sulfate; assay type: binding
Method: as §1, with “2.2×10^-4M” for “2.2×10^−4M”, “para-sulfonato-[…],” for “para-sulfonato-calix[n]arenes,”, “1/5. The samples are analyzed by circular dichroism between 180 and 260 nm. The protocol described in Example 5 above was repeated, with the exception that chondroitin-6-sulfate (Sigma) was used as agent II.” for “1/5.”

recombinant Tau protein = assay: Capture/precipitation of recombinant Tau protein by agent II C6S, Western blotting of pellet and supernatant; conditions: C6S 0.5 mM to 60 mM, 30 minutes at 37° C., centrifugation
Method: It is identical to that described in point 2.1 above.
The assays are carried out as indicated in point 2.2 above, apart from the fact that C6S prepared as indicated patent application WO2004/059322 is used, with a concentration range of from 0.5 mM to 60 mM.

[5] = chondroitin-6-sulfate at a concentration equal to that of Aβ42

T3 sequence (P05067 672-713): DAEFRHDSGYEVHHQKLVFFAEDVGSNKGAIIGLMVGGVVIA
T1 sequence (P10636 1-441 isoform P10636-8): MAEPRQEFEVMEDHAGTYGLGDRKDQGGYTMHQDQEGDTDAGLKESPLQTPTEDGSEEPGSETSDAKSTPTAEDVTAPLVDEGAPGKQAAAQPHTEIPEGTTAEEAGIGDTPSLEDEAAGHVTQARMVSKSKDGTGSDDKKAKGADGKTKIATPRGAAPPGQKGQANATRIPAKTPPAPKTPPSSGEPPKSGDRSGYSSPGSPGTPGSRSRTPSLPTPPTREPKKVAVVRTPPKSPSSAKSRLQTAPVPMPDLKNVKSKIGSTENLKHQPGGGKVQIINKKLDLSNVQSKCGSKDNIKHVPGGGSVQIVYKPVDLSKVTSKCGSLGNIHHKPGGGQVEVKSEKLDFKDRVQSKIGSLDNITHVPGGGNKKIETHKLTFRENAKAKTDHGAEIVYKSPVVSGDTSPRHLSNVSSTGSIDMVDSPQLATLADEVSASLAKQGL

NCCNCCNCCN [TET, triethylenetetramine]
fraction in which the phosphorylated Tau protein is found after treatment with agent I [1]: found in the pellet
completeness of precipitation of the Syn protein (protein found in the supernatant fraction) [2]: not complete
fraction in which the Syn protein is found after treatment with agent I [2]: found in the pellet

O=S(=O)(O)c1cc2c(O)c(c1)Cc1cc(S(=O)(=O)O)cc(c1O)Cc1cc(S(=O)(=O)O)cc(c1O)Cc1cc(S(=O)(=O)O)cc(c1O)C2 [para-sulfonato-calix[4]arene]
aperiodic structure (200 nm) of Aβ42 as share of visible structures [3]: 38%
α-helix structure (210 nm) of Aβ42 as share of visible structures [3]: more than 37%
β-sheets (220 nm) of Aβ42 as share of visible structures [3]: more than 26%

[H]/N=C(/N)N[C@H]1[C@H](O)[C@@H](O)[C@H](O[C@@H]2O[C@@H](C)[C@](O)(C=O)[C@H]2O[C@@H]2O[C@@H](CO)[C@H](O)[C@@H](O)[C@@H]2NC)[C@@H](N/C(N)=N\[H])[C@@H]1O [streptomycin]
completeness of precipitation of the Syn protein (protein found in the supernatant fraction) [2]: not complete
fraction in which the Syn protein is found after treatment with agent I [2]: found in the pellet

chondroitin-6-sulfate
aperiodic structure (at 200 nm) of Aβ42 [4, 5]: greater than 26%
α-helix (at 210 nm) of Aβ42 [4, 5]: more than 37%
β-sheet of Aβ42 at 220 nm [4, 5]: appears
secondary conformation adopted by Aβ42 ([4]; chondroitin-6-sulfate five times greater than the Aβ42 peptide): essentially aperiodic structure

p-sulfonato-3,7-(2-aminoethyloxy)calix-[6]-arene [C6S]
fraction in which the Tau protein and its digested forms are found after treatment with C6S (recombinant Tau protein): found in the pellet
